In ChEMBL document CHEMBL1154198, “Chemical genetics of Plasmodium falciparum” (Nature, 2010):

Key:
Plasmodium falciparum [1] = test: ST_JUDE: Plasmodium falciparum 3D7 EC50 (uM) as measured by SYBR green dye; format: functional, organism-based
Plasmodium falciparum [2] = test: ST_JUDE: Plasmodium falciparum K1 EC50 (uM) as measured by SYBR green dye; format: functional, organism-based

Structure (SMILES) | EC50 (Plasmodium falciparum [1]) | EC50 (Plasmodium falciparum [2])
CC(=O)Nc1ccc(S(=O)(=O)N2CCN(c3ccc(Nc4ccccc4)nn3)CC2)cc1 | 7.32 µM | > 15 µM
Cc1ccc(NC(=O)CSc2nc3c(cnn3CCO)c(=O)[nH]2)cc1 | > 15 µM | 1.91 µM
CS(=O)(=O)N(CC(=O)Nc1ccccc1Sc1ccccc1)c1ccc(Cl)c(Cl)c1 | 4.06 µM | 5.95 µM
COc1ccc(OC)c2sc(N(Cc3cccnc3)C(=O)c3cccc(C)c3)nc12 | > 15 µM | 2.33 µM
CCn1c2c(c(=N)c3c1CCC3)CCCC2 | 3.12 µM | 6.57 µM
COc1cc(CNCCCN(C)C)ccc1OCc1ccc(F)cc1Cl | 1.59 µM | 6.63 µM
O=C(Nc1ccc(N2CCCCC2)c(Cl)c1)c1ccc(F)cc1 | > 15 µM | 0.801 µM
COc1cc2c(cc1OC)C(C(=O)Nc1ccc(C(F)(F)F)cc1)C(c1cccs1)N(C)C2=O (stereo not drawn) | 2.34 µM | 3.05 µM
Oc1ccc(-c2nc(-c3ccc4oc5ccc(-c6[nH]c(-c7ccc(O)cc7)nc6-c6ccccc6)cc5c4c3)c(-c3ccccc3)[nH]2)cc1 | 8.11 µM | 2.99 µM
Cc1ccc2c(c1)c1c(n2CC(O)Cn2cnc(-c3ccccc3)c2-c2ccccc2)CCCC1 (stereo not drawn) | 2.02 µM | 1.08 µM
CCOc1cccc(C(=O)Nc2nonc2-c2ccc(OCC)c(OCC)c2)c1 | 0.169 µM | 0.217 µM
O=S(=O)(/N=C(\Nc1ccc(Br)cc1)c1ccccc1)c1ccccc1 | > 15 µM | > 15 µM
CC(=O)NC(c1ccc(Cl)cc1Cl)c1ccc2cccnc2c1O (stereo not drawn) | 3.22 µM | 3.01 µM
CCOc1ccccc1N(CC(=O)Nc1ccccc1C(C)C)S(=O)(=O)c1ccccc1 | > 15 µM | > 15 µM
CCOc1ccc2nc(C)cc(Nc3ccc4c(c3)OCCO4)c2c1 | > 15 µM | 9.41 µM
O=C(Nc1cccc(Cl)c1)c1cc2ccccc2cc1O | > 15 µM | 0.568 µM
C=CCNC(=S)N1CCc2cc(OC)c(OC)cc2C1c1ccccc1 (stereo not drawn) | 3.85 µM | 3.73 µM
COc1ccc2c(c1OC)C(=O)N1c3ccccc3N=C(c3ccc(C)cc3)CC21 (stereo not drawn) | 2.53 µM | 1.7 µM
CCN(CC)c1cc(C)c2cc(NC(=O)c3cccc([N+](=O)[O-])c3)ccc2n1 | 0.59 µM | > 15 µM
CCc1c(C)nc(-n2nc(C)cc2NC(=O)c2ccc(C(C)(C)C)cc2)nc1O | > 15 µM | > 15 µM
Cc1ccc(/C=N/NC(=O)COc2ccc(Cl)cc2Cl)c(O)c1 | > 15 µM | > 15 µM

Structure (SMILES) | EC50 (Plasmodium falciparum [1]) | EC50 (Plasmodium falciparum [2])
CCN(CC)S(=O)(=O)c1ccc(C(=O)Nc2nc(-c3ccccc3OC)cs2)cc1 | > 15 µM | > 15 µM
CCN(CC)c1ccc(/C=C/C2=[N+](C)c3ccc(C(=O)OC)cc3C2(C)C)cc1 | 3.08 µM | > 15 µM
CCOC(=O)c1oc2c(c1C)-c1nn(Cc3ccc(C)cc3)cc1CC2 | 3.14 µM | 2.16 µM
COC(=O)c1ccc(OCC2c3cc(OC)c(OC)cc3CCN2C(=O)Nc2ccccc2)cc1 (stereo not drawn) | 4.83 µM | 2.93 µM
COc1ccc(N2C(=O)c3cccnc3C2Nc2ccc(C)cc2Cl)cc1 (stereo not drawn) | 4 µM | 3.84 µM
Oc1ccccc1/C=N\c1ccc(-c2nc3cc(-c4ccc5[nH]c(-c6ccc(/N=C\c7ccccc7O)cc6)nc5c4)ccc3[nH]2)cc1 | 0.207 µM | 0.151 µM
CCOC(=O)c1cnc2c(C(F)(F)F)cccc2c1Nc1cc(C)ccc1O | 2.53 µM | 3.09 µM
CSc1cccc(NC(=O)C2c3ccccc3C(=O)N(C3CCCC3)C2c2cccs2)c1 (stereo not drawn) | 0.578 µM | 0.949 µM
CC(C)OC(=O)c1cc(NC(=S)Nc2ccc([N+](=O)[O-])cc2)cc(C(=O)OC(C)C)c1 | > 15 µM | 1.55 µM
CCOc1ccc(NC(=O)CSc2nncc(O)n2)cc1 | 0.734 µM | 0.994 µM
Cc1ccc(Nc2cc(C)nc(Nc3ccc(NS(=O)(=O)c4ccc(C)cc4)cc3)n2)cc1 | 0.621 µM | 7.97 µM
CCO/C(O)=C1\C(C)=NC2=C(C(=O)CC(c3ccccc3)C2)C1c1ccc(Cl)cc1 (stereo not drawn) | 3.85 µM | 6.69 µM
CCCN1CCN(CCCNC(=O)c2ccc3c(c2)sc2nc(-c4cccc(OC)c4)cn23)CC1 | 1.21 µM | 3.18 µM
COc1ccc2c(c1OC)C(=O)N1c3ccccc3N=C(c3ccc([N+](=O)[O-])cc3)CC21 (stereo not drawn) | > 15 µM | > 15 µM
CCc1cc(-c2[nH]nc(C)c2Oc2ccccc2)c(O)cc1OC(C)C | 3.66 µM | 1.46 µM
CC(=O)C1=C(c2ccc(Br)cc2)N(C(C)=O)n2cnnc2S1 | > 15 µM | 1.56 µM
COc1ccc(C(O)(CCC(C)C)C(CN2CCOCC2)c2ccccc2)cc1 (stereo not drawn) | 3.67 µM | 3.27 µM
O=[N+]([O-])c1ccc(C2N(Cc3ccccc3)CCN2Cc2ccccc2)cc1 | > 15 µM | > 15 µM
CCOC(=O)N1CCC(NC(=S)Nc2ccc(C(C)(C)C)cc2)CC1 | 9.44 µM | 2.64 µM
CC(C)c1ccc(/C=C2\Oc3c(ccc(O)c3CN(C)C)C2=O)cc1 | 1.01 µM | 0.615 µM
CO/C(O)=C1\C(C)=NC2=C(C(=O)CC(c3ccc(OC)c(OC)c3)C2)C1c1cccc(C)c1 (stereo not drawn) | 3.69 µM | 3.86 µM

Structure (SMILES) | EC50 (Plasmodium falciparum [1]) | EC50 (Plasmodium falciparum [2])
COc1ccccc1C(=O)Nc1nnc(Cc2nc3ccccc3[nH]2)s1 | > 15 µM | > 15 µM
COc1ccc(NC(=O)c2c(-c3c(Cl)cccc3Cl)noc2C)c(OC)c1 | > 15 µM | 5.43 µM
Cc1ccc(-c2nc3ccccc3o2)cc1NC(=O)C(Cl)(Cl)Cl | 4.07 µM | 1.7 µM
COc1ccc(C(=O)CSc2nnc(Cc3cc(O)nc(O)n3)n2-c2ccc(Cl)cc2)cc1 | > 15 µM | > 15 µM
CCCC(=O)NC(c1ccccc1Cl)c1cc(Cl)c2cccnc2c1O (stereo not drawn) | > 15 µM | > 15 µM
CCCC(=O)NC(c1ccccc1OC)c1ccc2cccnc2c1O (stereo not drawn) | 2.2 µM | 3.43 µM
Cc1ccc(C(=O)Nc2ccc3c(c2)N(S(=O)(=O)c2ccc(F)cc2)CCC3)cc1 | > 15 µM | > 15 µM
COCCCNc1nc2cc(OC)c(OC)cc2c2nc(-c3ccccc3)nn12 | 0.0855 µM | > 15 µM
C=CCOC(=O)C1=C(C)N=C(C)/C(=C(\O)OCC=C)C1c1ccc(OC)c(OC)c1 (stereo not drawn) | 4.4 µM | 5.93 µM
CCC1(C)CC(CCNCc2ccc(F)cc2)(c2ccc(C)cc2)CCO1 (stereo not drawn) | 1.11 µM | 0.974 µM
COc1ccc(OCC(O)Cn2c(C)[n+](C)c3ccccc32)cc1 (stereo not drawn) | > 15 µM | > 15 µM
COC(=O)C1C(O)=C2C(=Nc3ccccc3NC2c2ccccc2OC(C)C)CC1C (stereo not drawn) | > 15 µM | > 15 µM
Cc1ccc(C(C)C)c(OCc2nc3ccccc3n2C)c1 | > 15 µM | > 15 µM
Cc1ccc(N2C(=O)C(Cl)=C(Nc3ccccc3C)C2=O)c(C)c1 | > 15 µM | > 15 µM
CCOc1ccc(NC(=O)C2Sc3nnc(-c4ccccc4)n3NC2c2ccc(OC)cc2)cc1 (stereo not drawn) | > 15 µM | > 15 µM
Fc1ccc(Nc2nc(NCCN3CCOCC3)nc3c2cnn3-c2ccccc2)cc1 | > 15 µM | 6.75 µM
Cc1ccc(Nc2cc(C)nc(Nc3ccc(NS(=O)(=O)c4cccc(Cl)c4)cc3)n2)cc1 | 1.46 µM | > 15 µM
CN(C)c1ccc(C2N(C)c3ccccc3N2C)cc1 | 4.27 µM | 4.44 µM
Nc1ccc(-c2nc3cc(Cc4ccc5[nH]c(-c6ccc(N)cc6)nc5c4)ccc3[nH]2)cc1 | 1.08 µM | 1.13 µM
CCOc1ccc2nc(C)cc(Nc3ccc(N4CCOCC4)cc3)c2c1 | 0.982 µM | 6.36 µM
CCOc1ccc(CCNC(=O)Nc2cc(C(F)(F)F)cc(C(F)(F)F)c2)cc1OC | 2.83 µM | 5.6 µM

Structure (SMILES) | EC50 (Plasmodium falciparum [1]) | EC50 (Plasmodium falciparum [2])
COc1ccccc1N1CCN(Cc2cc(COC(C)C)c3cccnc3c2O)CC1 | 5.28 µM | > 15 µM
COc1cccc(-c2nc3cc(NC(=O)c4cccc(Cl)c4Cl)ccc3o2)c1 | > 15 µM | > 15 µM
Cc1cc(N2CCN(C)CC2)nc2ccc(NC(=S)NCCN3CCN(c4ccccc4F)CC3)cc12 | 2 µM | 6.21 µM
CCN(C(=O)Nc1ccccc1OC)c1nc(-c2ccccc2)cs1 | > 15 µM | > 15 µM
COc1ccc(S(=O)(=O)NC2=C/C(=N\c3ccc(NC(C)=O)cc3)C(=O)c3ccccc32)cc1 | 5.75 µM | 2.87 µM
CCN(CC)c1ccc(/C=N/NC(=O)c2cccc(NC(=O)c3ccc(C)cc3)c2)c(O)c1 | 5.46 µM | > 15 µM
CCN(CC)C(=O)c1sc(NC(=O)CCc2ccccc2)c(C(=O)OC(C)C)c1C | > 15 µM | > 15 µM
N=C(N/N=C\c1ccc(Br)cc1)N/N=C\c1ccc(Br)cc1 | 2.3 µM | > 15 µM
CCSc1ccc2ccccc2[n+]1CC | 0.416 µM | 0.259 µM
Cc1cccc(-n2ccnc2SCC(=O)Nc2cc(C(F)(F)F)ccc2Cl)c1 | > 15 µM | > 15 µM
Cc1ccc2c(c1)c1c(n2CC(O)CNC2CCCC2)CCCC1 (stereo not drawn) | 2.9 µM | 1.72 µM
CCOc1ccccc1C(=O)Nc1cc2c3c(c1)CCN3C(=O)CC2 | > 15 µM | > 15 µM
COc1ccc(N2C(=O)/C(=C/Nc3ccc(F)cc3)c3ccccc3C2=O)cc1 | > 15 µM | > 15 µM
CC(=O)N(C1=C(N2CCOCC2)C(=O)c2ccccc2C1=O)c1ccc(F)cc1 | 0.51 µM | 0.548 µM
Cc1nc2ccc(OCC(C)C)cc2c(O)c1CN(C)C1CCN(C)CC1 | > 15 µM | > 15 µM
Cc1nc2ccc(/N=C/c3ccc(N(C)C)cc3)cc2s1 | > 15 µM | > 15 µM
C=CCn1c(=N)n(CC(O)COc2cccc(C)c2)c2ccccc21 (stereo not drawn) | 7.13 µM | > 15 µM
CCc1c2cccn2cc[n+]1C | 7.07 µM | 6.08 µM
COc1ccc2c(=O)cc(C(Cl)(Cl)Cl)oc2c1 | > 15 µM | 1.54 µM
CN1C(=O)C(=Cc2ccc(-c3ccc(O)c(C(=O)O)c3)o2)C(=O)N(C)C1=O | > 15 µM | > 15 µM
CN1C(=O)C(=Cc2ccc(-c3ccc([N+](=O)[O-])cc3O)o2)C(=O)N(C)C1=O | > 15 µM | > 15 µM
